# Measured values reported in patent publication US8546321B2, “IL-4-derived peptides for modulation of the chronic inflammatory response and treatment of autoimmune diseases” (Kobenhavns Universitet, priority 2008, dated 2013).
# Like-named read-outs stand apart in the source and are kept apart here.
# Legend:
# [1] = tested on: cerebellar granular neurons (CGN); test: Neurite outgrowth assay in cultures of cerebellar granule neurons; assay type: cell-based, Wistar rats; settings: P7 CGN, peptides added after plating, 24 h
# Description: Cerebellar granular neurons (CGN) were prepared from 3 or 7 postnatal (P) day Wistar rats (Charles River, Sulzfeld, Germany or Taconic, Ejby, Denmark). Cerebella were cleared of meninges and blood vessels, roughly homogenized by chopping, and trypsinized with trypsin from Sigma-Aldrich (Brøndby, Denmark). The neurons were washed in the presence of DNAse 1 and soybean trypsin inhibitor (Sigma-Aldrich), and cellular debris was pelleted by centrifugation before plating. For single-cell culture experiments, P7 CGNs were plated at a density of 10,000 cells/well onto uncoated eight-well Lab-Tek chamber slides (NUNC, Slangerup, Denmark) in Neurobasal-A medium supplemented with 0.4% (w/v) BSA. Peptides at various concentrations were added to the medium immediately after plating, and cells were maintained at 37° C. and 5% CO2 for 24 h. Cultures then were fixed, blocked and incubated with polyclonal rabbit antibody against rat GAP-43 (Chemicon, Temecula, Calif., USA) followed by incubation with secondary Alexa Fluor488 goat anti-rabbit antibody (Molecular Probes, Eugene, Oreg., USA) as previously described (Neiiendam et al., 2004). The immunostained cultures were all recorded by computer-assisted fluorescence microscopy using a Nikon Diaphot inverted microscope (Nikon, Japan) equipped with a Nikon Plane 20× objective. Images were captured with a charge-coupled device video camera (Grundig Electronics, Nurnberg, Germany) using the software package Prima developed at the Protein Laboratory (University of Copenhagen, Copenhagen, Denmark). The length of neuronal processes per cell was estimated using the software package Process Length developed at the Protein Laboratory (Ronn et al. 2000). For estimation of neurite outgrowth, at least 200±20 cells were processed for each group in each individual experiment.
# [2] = tested on: psoriasis; settings: correcting imbalances in immune functions (Martin 2003); cited from earlier work
# [3] = repeated daily dosing; cited from earlier work
# [4] = subcutaneous administration, cited from earlier work
# [5] = tested on: malignancies; settings: in this dose and schedule (Whitehead et al., 1998); cited from earlier work
substance,measurement,setting,value
AITLQEIIKTLNSA (Variant of fragment of interleukin-4) [SEQ ID NO: 2],neuritogenic response from primary neurons,[1],induce a neuritogenic response
AQFHRHKQLIRFLKRA (Variant of fragment of interleukin-4) [SEQ ID NO: 1],neuritogenic response from primary neurons,[1],induce a neuritogenic response
AERLKTIMREKYSKS (Variant of fragment of interleukin-4) [SEQ ID NO: 4],neuritogenic response from primary neurons,[1],induce a neuritogenic response
ARFLKRLDRNLWGG (Variant of fragment of interleukin-4) [SEQ ID NO: 3],neuritogenic response from primary neurons,[1],induce a neuritogenic response
rhulL-4: Escherichia coli-derived recombinant human interleukin-4,benefit in patients with psoriasis,[2],beneficial
same,adverse effects,[3],a number of adverse effects
same,safety and tolerability,[4]; as high as 10 μg/kg administered 3 times/week,safe and well tolerated
same,safety and tolerability,[4]; doses as high as 5 μg/kg/day,safe and well tolerated
same,antitumor activity,[5],only low antitumor activity
